According to patent US20220031680A1, “Donecopride As Neuroprotective Agent In the Treatment of Neurodegenerative Diseases” (priority 2018, published 2022):

Assays:
[1] = test system: rat primary GABAergic neurons under a growth factor deprivation; assay: Survival of GABAergic neurons after growth factor deprivation; assay type: cell-based; details: BDNF and GDNF deprivation 96 h
Protocol: The aim of this study was to investigate the neuroprotective effect of MR33583 (at 4 concentrations) in MSN of striatum survival after growth factor deprivation (BDNF and GDNF deprivation), an in vitro model of Huntington's disease.
Rat MSN of striatum were cultured as described by Ivkovic et al. (1999) J. Neurosci. 19:5409-5419 and Schinelli et al. (1988) J. Neurochem. 50:1900-1907. Briefly pregnant female rats of 15 days gestation were killed using a deep anesthesia with CO2 chamber and a cervical dislocation. Fetuses were collected and immediately placed in ice-cold L15 Leibovitz medium with a 2% penicillin (10,000 U/ml) and streptomycin (10 mg/ml) solution (PS) and 1% bovine serum albumin (BSA). Only a restricted ventral portion of the mesencephalic flexure was used for cell preparation as this is the region of the developing brain rich in MSN cells. These areas were treated for 20 min at 37° C. with a trypsin-EDTA solution at a final concentration of 0.05% trypsin and 0.02% EDTA. […] Viable cells were counted in a Neubauer cytometer using the trypan blue exclusion test. […]
(§1) Test compounds were tested in 96-well plate (n=6 culture wells per condition). The following conditions were assessed: […]
The following read-out was investigated: Analysis of MSNs survival (GAD67 staining, number of GABAergic neurons).

[2] = test system: TDP-43; assay: Cytoplasmic TDP-43 in spinal motor neurons after glutamate injury; assay type: cell-based, rat; details: glutamate 5 μM 20 min; highest dose
Protocol: (§2) Rat spinal cord motor neurons (MNs) were cultured as described by Martinou et al. (1992) Neuron. 8:737-744 and Wang et al. (2013) Hum. Mol. Genet. 22:4706-4719. Briefly, pregnant female rats of 14 days gestation (Rats Wistar; Janvier Labs France) were killed using a deep anesthesia with CO2 chamber and a cervical dislocation. Then, fetuses were removed from the uterus and immediately placed in ice-cold L15 Leibovitz medium with a 2% penicillin (10,000 U/ml) and streptomycin (10 mg/ml) solution (PS) and 1% bovine serum albumin (BSA).
Spinal cords were treated for 20 min at 37° C. with a trypsin-EDTA solution at a final concentration of 0.05% trypsin and 0.02% EDTA. […] Viable cells were counted in a Neubauer cytometer, using the trypan blue exclusion test. […]
as §1
(§3) The following endpoints were automatically assessed: • Analysis of neuron survival (MAP-2 staining, number of neurons), • Analysis of neurite network (MAP-2 staining, total neurite length in μm), • Analysis of neurite network/neurons (neuronal network/number of MAP2 neurons), • Analysis of cytoplasmic TDP-43 in MAP-2 positive neurons (overlapping between MAP-2 and cytoplasmic TDP-43 in μm^2).

[3] = test system: spinal motor neurons injured with glutamate; assay: Survival and neurite network of primary spinal motor neurons after glutamate injury; assay type: cell-based, rat; details: glutamate 5 μM 20 min
Protocol: as §2
Spinal cords were treated for 20 min at 37° C. with a trypsin-EDTA solution at a final concentration of 0.05% trypsin and 0.02% EDTA. The dissociation was stopped by addition of Dulbecco's modified Eagle's medium (DMEM) with 4.5 g/I glucose, containing DNAse I grade II (final concentration 0.5 mg/ml) and 10% fetal calf serum (FCS). Cells were mechanically dissociated by three forced passages through the tip of a 10-ml pipette. Cells were then centrifuged at 515×g for 10 min at 4° C. The supernatant was discarded, and the pellet was resuspended in a defined culture medium consisting of Neurobasal medium with a 2% solution of B27 supplement, 2 mmol/I L-glutamine, 2% PS solution, and 10 ng/ml brain-derived neurotrophic factor (BDNF). Viable cells were counted in a Neubauer cytometer, using the trypan blue exclusion test. Cells were seeded at a density of 20,000 per well in 96-well plates precoated with poly-L-lysine and were cultured at 37° C. in an air (95%)-CO2 (5%) incubator.
The medium was changed every 2 days. […]
as §1, §3

**Q.** `COc1cc(N)c(F)cc1C(=O)CCC1CCN(CC2CCCC2)CC1` [MR33583] was tested. Which “concentration with significant neuroprotective effect (survival of GABAergic neurons)” value [1] did it give?
**A.** 50 nM

**Q.** And the “dose reducing the signal of TDP43 in the cytoplasm of spinal motor neurons” value [2]?
**A.** 100 nM

**Q.** Which results are given for `COc1cc(N)c(F)cc1C(=O)CCC1CCN(CC2CCCCCC2)CC1` [MR36014]?
**A.** concentrations significantly improving spinal motor neurons survival ([3]; 24 h): 1 nM; concentrations significantly protecting the neurite network ([3]; spinal motor neurons): 1 nM; ratio neurite network length/number of neurons ([3]; spinal motor neurons): not modified
